Results as given in patent publication EP2121694B1, “CYCLOPROPYL FUSED INDOLOBENZAZEPINE HCV NS5B INHIBITORS” (Bristol-Myers Squibb Company, priority 2007, dated 2008).
Where two headings read alike, the source gives them in different places.

Tests used:
[1] = molecular target: T1, HCV NS5B (Hepatitis C virus genotype 1b, UniProt Q9WMX2); assay: Modified HCV NS5B RdRp enzyme assay (preincubation protocol); format: biochemical; conditions: HCV NS5B RdRp genotype 1b
T1 construct: The protein was expressed with an 18 amino acid C-terminal truncation to enhance the solubility; made in house; host or cells: E. coli BL21(DE3), pET21a vector
Procedure: HCV NS5B RdRp cloning, expression, and purification. The cDNA encoding the NS5B protein of HCV, genotype 1b, was cloned into the pET21a expression vector. The protein was expressed with an 18 amino acid C-terminal truncation to enhance the solubility. The E. coli competent cell line BL21(DE3) was used for expression of the protein. Cultures were grown at 37 °C for ∼ 4 hours until the cultures reached an optical density of 2.0 at 600 nm. The cultures were cooled to 20 °C and induced with 1 mM IPTG. Fresh ampicillin was added to a final concentration of 50 µg/ml and the cells were grown overnight at 20 °C.
Cell pellets (3L) were lysed for purification to yield 15-24 mgs of purified NS5B. The lysis buffer consisted of 20 mM Tris-HCl, pH 7.4, 500 mM NaCl, 0.5% triton X-100, 1 mM DTT, 1mM EDTA, 20% glycerol, 0.5 mg/ml lysozyme, 10 mM MgCl2, 15 ug/ml deoxyribonuclease I, and Complete TM protease inhibitor tablets (Roche). After addition of the lysis buffer, frozen cell pellets were resuspended using a tissue homogenizer. To reduce the viscosity of the sample, aliquots of the lysate were sonicated on ice using a microtip attached to a Branson sonicator. The sonicated lysate was centrifuged at 100,000 x g for 1hr at 4 °C and filtered through a 0.2 µm filter unit (Corning).
The protein was purified using three sequential chromatography steps: Heparin sepharose CL-6B, polyU sepharose 4B, and Hitrap SP sepharose (Pharmacia). The chromatography buffers were identical to the lysis buffer but contained no lysozyme, deoxyribonuclease I, MgCl2 or protease inhibitor and the NaCl concentration of the buffer was adjusted according to the requirements for charging the protein onto the column. Each column was eluted with a NaCl gradient which varied in length from 5-50 column volumes depending on the column type. After the final chromatography step, the resulting purity of the enzyme is >90% based on SDS-PAGE analysis. The enzyme was aliquoted and stored at -80 °C.
Standard HCV NS5B RdRp enzyme assay. HCV RdRp genotype 1b assays were run in a final volume of 60 µl in 96 well plates (Costar 3912). The assay buffer is composed of 20 mM Hepes, pH 7.5, 2.5 mM KCl, 2.5 mM MgCl2, 1 mM DTT, 1.6 U RNAse inhibitor (Promega N2515), 0.1 mg/ml BSA (Promega R3961), and 2 % glycerol. All compounds were serially diluted (3-fold) in DMSO and diluted further in water such that the final concentration of DMSO in the assay was 2%. HCV RdRp genotype 1b enzyme was used at a final concentration of 28 nM. A polyA template was used at 6 nM, and a biotinylated oligo-dT12 primer was used at 180 nM final concentration. Template was obtained commercially (Amersham 27-4110). Biotinylated primer was prepared by Sigma Genosys. 3H-UTP was used at 0.6 µCi (0.29 µM total UTP). Reactions were initiated by the addition of enzyme, incubated at 30 °C for 60 min, and stopped by adding 25 µl of 50 mM EDTA containing SPA beads (4 µg/µl, Amersham RPNQ 0007). Plates were read on a Packard Top Count NXT after >1hr incubation at room temperature.
Modified HCV NS5B RdRp enzyme assay. A modified enzyme assay was performed essentially as described for the standard enzyme assay except for the following: The biotinylated oligo dT12 primer was precaptured on streptavidin-coated SPA beads by mixing primer and beads in assay buffer and incubating at room temperature for one hour. Unbound primer was removed after centrifugation. The primer-bound beads were resuspended in 20 mM Hepes buffer, pH 7.5 and used in the assay at final concentrations of 20 nM primer and 0.67 µg/µl beads. Order of addition in the assay: enzyme (14 nM) was added to diluted compound followed by the addition of a mixture of template (0.2 nM) , 3H-UTP (0.6 µCi, 0.29 µM), and primer-bound beads, to initiate the reaction; concentrations given are final. Reactions were allowed to proceed for 4 hours at 30° C.
IC50 values for compounds were determined using seven different [I]. […]

[2] = system: HCV replicon; assay: HCV FRET screening assay in HCV replicon cells; format: cell-based; conditions: Hepatitis C virus
Text: FRET Assay Preparation. To perform the HCV FRET screening assay, 96-well cell culture plates were used. The FRET peptide (Anaspec, Inc.) (Taliani et al., Anal. Biochem. 1996, 240, 60-67) contains a fluorescence donor, EDANS, near one end of the peptide and an acceptor, DABCYL, near the other end. The fluorescence of the peptide is quenched by […] resonance energy transfer (RET) between the donor and the acceptor, but as the NS3 protease cleaves the peptide the products are released from RET quenching and the fluorescence of the donor becomes apparent. The assay reagent was made as follows: 5X cell Luciferase cell culture lysis reagent from Promega (#E153A) diluted to 1X with dH2O, NaCl added to 150 mM final, the FRET peptide diluted to 20 uM final from a 2 mM stock.
To prepare plates, HCV replicon cells, with or without a Renilla luciferase reporter gene, were trypsinized and placed into each well of a 96-well plate with titrated test compounds added in columns 3 through 12; columns 1 and 2 contained a control compound (HCV protease inhibitor), and the bottom row contained cells without compound. The plates were then placed in a CO2 incubator at 37 °C.
Assays. Subsequent to addition of the test compounds described above (FRET Assay Preparation), at various times the plate was removed and Alamar blue solution (Trek Diagnostics, #00-100) was added per well as a measure of cellular toxicity. After reading in a Cytoflour 4000 instrument (PE Biosystems), plates were rinsed with PBS and then used for FRET assay by the addition of 30 ul of the FRET peptide assay reagent described above (FRET Assay Preparation) per well. The plate was then placed into the Cytoflour 4000 instrument which had been set to 340 excite/490 emission, automatic mode for 20 cycles and the plate read in a kinetic mode. Typically, the signal to noise using an endpoint analysis after the reads was at least three-fold. Alternatively, after Alamar blue reading, plates were rinsed with PBS, 50 ul of DMEM (high glucose) without phenol red was added and plates were then used for luciferase assay using the Promega Dual-Glo Luciferase Assay System.
Compound analysis was determined by quantification of the relative HCV replicon inhibition and the relative cytotoxicity values. To calculate cytoxicity values, the average Alamar Blue fluorescence signals from the control wells were set as 100% non-toxic. The individual signals in each of the compound test wells were then divided by the average control signal and multiplied by 100% to determine […]. To calculate the HCV replicon inhibition values, an average background value was obtained from the two wells containing the highest amount of HCV protease inhibitor at the end of the assay period. These numbers were similar to those obtained from naïve Huh-7 cells.
The background numbers were then subtracted from the average signal obtained from the control wells and this number was used as 100% activity. The individual signals in each of the compound test wells were then divided by the averaged control values after background subtraction and multiplied by 100% to determine percent activity. EC50 values for a protease inhibitor titration were calculated as the concentration which caused a 50% reduction in FRET or luciferase activity. The two numbers generated for the compound plate, percent cytoxicity and percent activity were used to determine compounds of interest for further analysis.

[3] = HCV replicon cells, FRET assay, read-out: EC50

T1 sequence (Q9WMX2 2420-2992): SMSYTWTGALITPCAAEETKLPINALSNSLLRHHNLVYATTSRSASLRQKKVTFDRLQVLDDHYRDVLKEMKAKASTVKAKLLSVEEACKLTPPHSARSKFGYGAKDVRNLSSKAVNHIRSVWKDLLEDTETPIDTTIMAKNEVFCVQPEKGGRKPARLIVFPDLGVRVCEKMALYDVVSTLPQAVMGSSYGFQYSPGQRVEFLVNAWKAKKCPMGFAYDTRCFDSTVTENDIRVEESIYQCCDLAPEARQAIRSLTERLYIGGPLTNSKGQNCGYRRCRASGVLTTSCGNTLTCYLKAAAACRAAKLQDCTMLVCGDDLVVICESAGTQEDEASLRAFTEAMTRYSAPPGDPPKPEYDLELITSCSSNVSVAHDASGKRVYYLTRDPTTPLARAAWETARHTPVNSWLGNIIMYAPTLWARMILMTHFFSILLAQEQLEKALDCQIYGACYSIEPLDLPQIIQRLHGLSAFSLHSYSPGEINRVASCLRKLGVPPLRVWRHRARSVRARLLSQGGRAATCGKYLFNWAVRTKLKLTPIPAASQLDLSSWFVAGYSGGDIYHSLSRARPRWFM

C[C@@H]1CN(C(=O)C23CC2c2c(OC(F)(F)F)cccc2-c2c(C4CCCCC4)c4ccc(C(=O)NS(=O)(=O)N(C)C)cc4n2C3)C[C@H](C)O1 (some centres unmarked)
IC50 [1]: 0.097 to 1 µM
EC50 [2, 3]: 0.097 to 1 µM

COCC1CN(C(=O)C23CC2c2cc(OC)ccc2-c2c(C4CCCCC4)c4ccc(C(=O)NS(=O)(=O)N(C)C)cc4n2C3)CCO1 (centres unmarked)
IC50 [1]: 0.097 to 1 µM
EC50 [2]: 0.097 to 1 µM

COc1ccc2c(c1)C1CC1(C(=O)N1CCCNCC1)Cn1c-2c(C2CCCCC2)c2ccc(C(=O)NS(=O)(=O)N(C)C)cc21 (centres unmarked)
IC50 [1]: 0.097 to 1 µM
EC50 [2, 3]: 0.097 to 1 µM

COc1ccc2c(c1)C1CC1(C(=O)N1CCCCC1CN(C)C)Cn1c-2c(C2CCCCC2)c2ccc(C(=O)NS(=O)(=O)N(C)C)cc21 (centres unmarked) [drawing 49]
IC50 [1]: 0.097 to 1 µM
EC50 [2, 3]: 0.097 to 1 µM

COc1ccc2c(c1)C1CC1(C(=O)N1CCCN(C)CC1)Cn1c-2c(C2CCCCC2)c2ccc(C(=O)NS(N)(=O)=O)cc21 (centres unmarked)
IC50 [1]: 0.097 to 1 µM
EC50 [2, 3]: 0.097 to 1 µM

COc1ccc2c(c1)C1CC1(C(=O)N1CCOC[C@H]1C)Cn1c-2c(C2CCCCC2)c2ccc(C(=O)NS(=O)(=O)N(C)C)cc21 (some centres unmarked)
IC50 [1]: 0.097 to 1 µM
EC50 [2, 3]: 0.097 to 1 µM

COc1ccc2c(c1)C1CC1(C(=O)N1CCC(C)(O)CC1)Cn1c-2c(C2CCCCC2)c2ccc(C(=O)NS(N)(=O)=O)cc21 (centres unmarked)
IC50 [1]: 0.097 to 1 µM
EC50 [2, 3]: 0.097 to 1 µM

COc1ccc2c(c1)C1CC1(C(=O)N1CCC(C)(O)CC1)Cn1c-2c(C2CCCCC2)c2ccc(C(=O)NS(=O)(=O)N(C)C)cc21 (centres unmarked)
IC50 [1]: 0.097 to 1 µM
EC50 [2, 3]: 0.097 to 1 µM

COc1ccc2c(c1)C1CC1(C(=O)N1CCCN(C)CC1)Cn1c-2c(C2CCCCC2)c2ccc(C(=O)NS(=O)(=O)C3CC3)cc21 (centres unmarked)
IC50 [1]: 0.097 to 1 µM
EC50 [2, 3]: 0.097 to 1 µM

COc1ccc2c(c1)C1CC1(C(=O)N1CC[C@H](N(C)C)C1)Cn1c-2c(C2CCCCC2)c2ccc(C(=O)NS(=O)(=O)N(C)C)cc21 (some centres unmarked)
IC50 [1]: 0.097 to 1 µM
EC50 [2, 3]: 0.097 to 1 µM

CCN(CC)CCN(CCN(CC)CC)C(=O)C12CC1c1cc(OC)ccc1-c1c(C3CCCCC3)c3ccc(C(=O)NS(=O)(=O)N(C)C)cc3n1C2 (centres unmarked)
IC50 [1]: 0.097 to 1 µM
EC50 [2, 3]: 0.097 to 1 µM

C[C@@H]1CN(C(=O)C23CC2c2c(OC(F)(F)F)cccc2-c2c(C4CCCCC4)c4ccc(C(=O)O)cc4n2C3)C[C@H](C)O1 (some centres unmarked)
IC50 [1]: 0.097 to 1 µM
EC50 [2, 3]: 0.097 to 1 µM

CCN(CC)CCN(C)C(=O)C12CC1c1cc(OC)ccc1-c1c(C3CCCCC3)c3ccc(C(=O)NS(=O)(=O)N(C)C)cc3n1C2 (centres unmarked)
IC50 [1]: 0.097 to 1 µM
EC50 [2, 3]: 0.097 to 1 µM

COc1ccc2c(c1)C1CC1(C(=O)N1CCN(c3ccccn3)CC1)Cn1c-2c(C2CCCCC2)c2ccc(C(=O)NS(=O)(=O)C3CC3)cc21 (centres unmarked)
IC50 [1]: 0.097 to 1 µM
EC50 [2, 3]: 0.097 to 1 µM

COc1ccc2c(c1)[C@@H]1C[C@]1(C(=O)O)Cn1c-2c(C2CCCCC2)c2ccc(C(=O)NS(=O)(=O)N(C)C)cc21
IC50 [1]: 0.097 to 1 µM
EC50 [2]: 1 to 10 µM

COc1ccc2c(c1)C1CC1(C(=O)N1CCOC[C@H]1CN)Cn1c-2c(C2CCCCC2)c2ccc(C(=O)NS(=O)(=O)N(C)C)cc21 (some centres unmarked)
IC50 [1]: 0.097 to 1 µM
EC50 [2, 3]: 0.097 to 1 µM
